# Source: patent EP0517412A1, “Pharmaceutical formulations of a benzodiazepine” (MERCK SHARP & DOHME LTD., priority 1991, dated 1992)
# Tests used:
# Assay type in all cases: physicochemical
# solubility in water = assay: solubility in water
# [1] = solubility of the benzodiazepine in prior-art type carriers
# [2] = maximum solubility of the benzodiazepine in carriers of the invention
compound,measurement,setting,value
"Cc1cccc(NC(=O)NC2N=C(c3ccccc3)c3ccccc3N(C)C2=O)c1 (stereo not drawn) [(A), 3R(+)-N-(2,3-dihydro-1-methyl-2-oxo-5-phenyl-1H-1,4-benzodiazepin-3-yl)-N'-(3-methylphenyl)-urea]",solubility,solubility in water,< 2 µg/mL
same,solubility (carrier a poor solvent),[1]; benzodiazepine substituted for cyclosporin in formulation type of GB 2 228 198 (Maisine and Cremophore RH40),less than 10 mg/g
same,solubility,[1]; benzodiazepine substituted for cyclosporin in formulation type of GB 2015339 (Labrafil M1944CS and ethanol with corn oil or olive oil; or glycerol mono-oleate and ethanol),~20 mg/g
same,solubility,"[1]; benzodiazepine substituted for dihydrocyclosporin in formulation type of BE 895 724 (ethanol, Imwitor 742, esterified corn oil)",~60 mg/g
same,amount that can be dissolved,"[2]; Method 2 (room temperature method, 20°C, Silverson mixer), Labrafil M2125 CS, Tween 80, propylene glycol, purified water",up to 6 % (w/w)
same,maximum solubility for the benzodiazepine,[2]; carrier Labrasol/Tween 80,~240 mg/g
same,maximum solubility for the benzodiazepine,[2]; carrier comprising Imwitor 742 and Tween 80,~140 mg/g
same,maximum solubility for the benzodiazepine,[2]; corresponding Labrafil-containing carrier,60 to 80 mg/g
same,solubility in the mixture of ingredients of the carrier,[2]; mixture of carrier ingredients compared with the separate ingredients,more than in the separate ingredients
same,percentage of the active ingredient that can be dissolved in the carrier,[2]; without heating,around 6%
